Results published in ChEMBL document CHEMBL3882729, “Receptor-type kinase modulators and methods of use” (2009).

Legend:
Ephrin type-B receptor 4 = biological target: T1, Ephrin type-B receptor 4 (Homo sapiens, UniProt P54760); experiment: Inhibition of recombinant human N-terminal His6-tagged EphB4 kinase domain (E605 to E890 residues) expressed in baculovirus using poly-AEKY as substrate after 150 mins in presence of gamma33P-ATP by liquid scintillation spectrometry
T1 sequence (P54760 whole entry): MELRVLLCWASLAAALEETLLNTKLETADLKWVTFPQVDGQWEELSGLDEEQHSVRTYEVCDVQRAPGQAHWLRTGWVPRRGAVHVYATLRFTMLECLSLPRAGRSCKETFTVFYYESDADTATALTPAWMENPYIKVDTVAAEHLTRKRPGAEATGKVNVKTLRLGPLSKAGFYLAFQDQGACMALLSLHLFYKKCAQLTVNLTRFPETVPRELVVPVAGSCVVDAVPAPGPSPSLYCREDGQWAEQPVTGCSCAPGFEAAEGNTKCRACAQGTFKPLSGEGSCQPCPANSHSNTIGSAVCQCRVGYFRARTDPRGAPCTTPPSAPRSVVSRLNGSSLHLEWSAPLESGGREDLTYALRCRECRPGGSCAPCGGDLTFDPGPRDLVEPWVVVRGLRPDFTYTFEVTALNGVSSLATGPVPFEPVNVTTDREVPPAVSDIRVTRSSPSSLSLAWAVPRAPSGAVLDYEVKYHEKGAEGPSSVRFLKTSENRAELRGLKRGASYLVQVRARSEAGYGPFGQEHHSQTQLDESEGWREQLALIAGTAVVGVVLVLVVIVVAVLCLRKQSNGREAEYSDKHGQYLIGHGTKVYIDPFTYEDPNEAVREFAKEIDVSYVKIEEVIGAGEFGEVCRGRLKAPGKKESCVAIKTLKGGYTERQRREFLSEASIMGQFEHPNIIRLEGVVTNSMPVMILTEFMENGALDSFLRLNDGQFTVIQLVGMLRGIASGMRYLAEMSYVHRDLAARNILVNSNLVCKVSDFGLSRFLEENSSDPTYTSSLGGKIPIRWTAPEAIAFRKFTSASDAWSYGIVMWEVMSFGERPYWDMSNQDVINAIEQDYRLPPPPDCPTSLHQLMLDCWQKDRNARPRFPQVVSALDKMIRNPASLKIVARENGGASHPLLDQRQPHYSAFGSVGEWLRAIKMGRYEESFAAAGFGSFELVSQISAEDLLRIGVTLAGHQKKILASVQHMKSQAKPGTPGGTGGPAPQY

[1] = biological target: Vascular endothelial growth factor receptor 2 (Homo sapiens, UniProt P35968); experiment: Inhibition of recombinant human N-terminal GST-fused KDR (D807 to V1356 residues) expressed in baculovirus infected […] insect Sf9 cells using poly-EY as substrate after 240 mins by luciferase coupled chemiluminescence assay
Ephrin type-A receptor 2 = Ephrin type-A receptor 2 (Homo sapiens, UniProt P29317); experiment: Inhibition of recombinant human N-terminal His6-tagged EphA2 (N598 to R890 residues) expressed in baculovirus using poly-EY as substrate after 180 mins by luciferase coupled chemiluminescence assay
Sequence of Ephrin type-A receptor 2 (P29317 whole entry, the tested form may be a part): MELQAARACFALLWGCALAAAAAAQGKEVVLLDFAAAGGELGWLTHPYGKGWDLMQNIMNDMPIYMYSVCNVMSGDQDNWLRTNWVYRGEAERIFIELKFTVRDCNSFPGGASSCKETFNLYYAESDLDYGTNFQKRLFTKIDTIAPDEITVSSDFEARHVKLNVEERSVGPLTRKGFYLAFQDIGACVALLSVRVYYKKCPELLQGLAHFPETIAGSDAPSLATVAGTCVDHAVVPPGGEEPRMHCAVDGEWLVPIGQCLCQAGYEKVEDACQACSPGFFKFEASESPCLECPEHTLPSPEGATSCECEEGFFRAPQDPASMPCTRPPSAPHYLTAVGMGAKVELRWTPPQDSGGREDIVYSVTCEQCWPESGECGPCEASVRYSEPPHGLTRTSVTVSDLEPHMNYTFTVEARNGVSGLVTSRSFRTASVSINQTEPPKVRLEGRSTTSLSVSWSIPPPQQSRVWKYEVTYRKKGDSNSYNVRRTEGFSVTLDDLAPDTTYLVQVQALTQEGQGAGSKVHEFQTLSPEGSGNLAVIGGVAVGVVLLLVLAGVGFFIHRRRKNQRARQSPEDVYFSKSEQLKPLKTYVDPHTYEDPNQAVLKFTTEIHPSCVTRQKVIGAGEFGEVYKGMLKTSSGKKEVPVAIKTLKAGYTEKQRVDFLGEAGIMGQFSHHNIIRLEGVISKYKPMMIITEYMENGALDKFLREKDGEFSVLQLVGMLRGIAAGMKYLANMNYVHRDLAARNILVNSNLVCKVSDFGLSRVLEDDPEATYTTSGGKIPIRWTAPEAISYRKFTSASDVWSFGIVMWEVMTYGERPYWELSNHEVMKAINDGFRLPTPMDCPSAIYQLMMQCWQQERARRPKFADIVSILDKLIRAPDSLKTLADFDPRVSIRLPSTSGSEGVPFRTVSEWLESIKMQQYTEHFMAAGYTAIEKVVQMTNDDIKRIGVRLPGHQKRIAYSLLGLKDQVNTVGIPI

Sequence of Vascular endothelial growth factor receptor 2 (P35968 whole entry, the tested form may be a part): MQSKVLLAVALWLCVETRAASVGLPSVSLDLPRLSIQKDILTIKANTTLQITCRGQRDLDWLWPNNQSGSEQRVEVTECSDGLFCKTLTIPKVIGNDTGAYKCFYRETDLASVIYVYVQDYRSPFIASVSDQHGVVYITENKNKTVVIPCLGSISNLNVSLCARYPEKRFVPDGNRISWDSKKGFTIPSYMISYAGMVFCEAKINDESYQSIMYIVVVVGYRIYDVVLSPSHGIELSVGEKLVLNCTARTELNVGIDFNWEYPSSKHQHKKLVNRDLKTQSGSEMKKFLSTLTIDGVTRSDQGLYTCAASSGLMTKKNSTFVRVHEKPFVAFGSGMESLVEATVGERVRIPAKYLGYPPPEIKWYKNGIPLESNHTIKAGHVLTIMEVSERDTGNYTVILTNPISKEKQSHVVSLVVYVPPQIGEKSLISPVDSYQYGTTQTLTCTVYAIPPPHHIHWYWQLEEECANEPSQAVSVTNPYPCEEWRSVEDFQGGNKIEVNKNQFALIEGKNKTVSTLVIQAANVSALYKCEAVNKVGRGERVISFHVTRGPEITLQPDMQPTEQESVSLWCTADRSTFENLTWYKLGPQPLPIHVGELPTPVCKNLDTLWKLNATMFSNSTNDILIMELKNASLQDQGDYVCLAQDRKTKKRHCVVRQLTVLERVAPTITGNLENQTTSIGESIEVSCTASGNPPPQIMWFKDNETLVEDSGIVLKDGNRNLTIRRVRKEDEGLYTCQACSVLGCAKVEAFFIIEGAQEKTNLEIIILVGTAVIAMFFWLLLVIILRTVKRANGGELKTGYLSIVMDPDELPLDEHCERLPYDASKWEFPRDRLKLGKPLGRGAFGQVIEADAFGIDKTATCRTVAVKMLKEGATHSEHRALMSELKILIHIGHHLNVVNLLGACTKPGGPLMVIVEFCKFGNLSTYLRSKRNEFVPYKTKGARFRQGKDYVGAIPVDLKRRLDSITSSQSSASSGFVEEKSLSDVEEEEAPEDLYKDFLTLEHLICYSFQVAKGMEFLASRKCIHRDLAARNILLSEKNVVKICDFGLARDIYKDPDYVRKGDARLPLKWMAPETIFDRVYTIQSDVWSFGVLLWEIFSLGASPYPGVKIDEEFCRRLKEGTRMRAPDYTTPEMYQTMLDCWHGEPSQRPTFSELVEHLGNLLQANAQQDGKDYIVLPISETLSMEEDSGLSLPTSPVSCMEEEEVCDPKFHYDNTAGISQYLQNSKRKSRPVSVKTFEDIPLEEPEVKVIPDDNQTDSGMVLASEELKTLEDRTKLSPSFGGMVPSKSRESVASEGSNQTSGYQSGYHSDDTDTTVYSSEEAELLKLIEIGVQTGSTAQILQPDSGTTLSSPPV

Structure (SMILES)	IC50 (Ephrin type-B receptor 4)	IC50 [1]	IC50 (Ephrin type-A receptor 2)
COc1cc2c(Nc3ccc(Br)cc3Cl)ncnc2cc1OCC1CN(C)CCO1 (stereo not given)	50 to 1000 nM	50 to 1000 nM	50 to 1000 nM
CCC(CC)CN1CCCOC(COc2cc3ncnc(Nc4ccc(Cl)c(Cl)c4)c3cc2OC)C1 (stereo not given)	50 to 1000 nM	50 to 1000 nM	50 to 1000 nM
COC(=O)CCC(=O)N1CCOC(COc2cc3ncnc(Nc4ccc(Cl)c(Cl)c4)c3cc2OC)C1 (stereo not given)	50 to 1000 nM	50 to 1000 nM	50 to 1000 nM
COc1cc2c(Nc3ccc(Cl)c(Cl)c3)ncnc2cc1OCc1csc(CN(C)C)n1	50 to 1000 nM	–	–
COc1cc2c(Nc3ccc(Cl)c(Cl)c3)ncnc2cc1OCC1CN(CCC2OCCO2)CCO1 (stereo not given)	< 50 nM	50 to 1000 nM	50 to 1000 nM
COc1cc2c(Nc3cc(Cl)ccc3F)ncnc2cc1OCC1CN(C)CCO1 (stereo not given)	50 to 1000 nM	50 to 1000 nM	50 to 1000 nM
COc1cc2c(Nc3ccc(Cl)c(Br)c3)ncnc2cc1OCC1CN(C)CCO1 (stereo not given)	< 50 nM	50 to 1000 nM	50 to 1000 nM
COc1cc2c(Nc3ccc(Cl)c(Cl)c3)ncnc2cc1OCC1CN(C(=O)C(C)(C)C)CCO1 (stereo not given)	50 to 1000 nM	50 to 1000 nM	50 to 1000 nM
COc1cc2c(Nc3ccc(Cl)c(Cl)c3)ncnc2cc1OCC1CN(C(C)=O)CCO1 (stereo not given)	< 50 nM	50 to 1000 nM	50 to 1000 nM
COc1cc2c(Nc3ccc(Cl)c(Cl)c3)ncnc2cc1OCc1nc(CS(=O)(=O)c2ccccn2)no1	50 to 1000 nM	50 to 1000 nM	50 to 1000 nM
CCC1(C)CN(C)CC(COc2cc3ncnc(Nc4ccc(Cl)c(Cl)c4)c3cc2OC)O1 (stereo not given)	50 to 1000 nM	50 to 1000 nM	50 to 1000 nM
COc1cc2c(Nc3ccc(Cl)c(Cl)c3)ncnc2cc1OCC1CN(CCCCF)CCO1 (stereo not given)	< 50 nM	< 50 nM	50 to 1000 nM
COc1cc2c(Nc3ccc(Cl)c(Cl)c3)ncnc2cc1OCC1CN(S(=O)(=O)c2ccccc2)CCO1 (stereo not given)	50 to 1000 nM	50 to 1000 nM	1000 to 20000 nM
COc1cc2c(Nc3ccc(Cl)c(Cl)c3)ncnc2cc1OCC1CN(S(=O)(=O)Cc2ccccc2)CCO1 (stereo not given)	50 to 1000 nM	50 to 1000 nM	50 to 1000 nM
COc1cc2c(Nc3ccc(Cl)c(Cl)c3)ncnc2cc1OCC1CN(CC2CC2)CCO1 (stereo not given)	< 50 nM	< 50 nM	< 50 nM
COC(=O)CCCCN1CCOC(COc2cc3ncnc(Nc4ccc(Cl)c(Cl)c4)c3cc2OC)C1 (stereo not given)	50 to 1000 nM	50 to 1000 nM	50 to 1000 nM
COc1cc2c(Nc3ccc(Cl)c(Cl)c3)ncnc2cc1OCC1CN(C(=O)c2cc(F)ccc2F)CCO1 (stereo not given)	50 to 1000 nM	50 to 1000 nM	50 to 1000 nM
CCCC(C)C(=O)N1CCOC(COc2cc3ncnc(Nc4ccc(Cl)c(Cl)c4)c3cc2OC)C1 (stereo not given)	50 to 1000 nM	50 to 1000 nM	50 to 1000 nM
COc1cc2c(Nc3ccc(Cl)c(Cl)c3)ncnc2cc1OCC1CN(CC2CCCCO2)CCO1 (stereo not given)	< 50 nM	< 50 nM	–
COc1cc2c(Nc3ccc(Cl)c(Cl)c3)ncnc2cc1OCC1CN(CCC(C)C)CCCO1 (stereo not given)	50 to 1000 nM	50 to 1000 nM	50 to 1000 nM
COc1cc2c(Nc3cccc(Br)c3Cl)ncnc2cc1OCC1CN(C)CCO1 (stereo not given)	< 50 nM	50 to 1000 nM	50 to 1000 nM
COc1cc2c(Nc3ccc(Br)cc3C)ncnc2cc1OCC1CN(C)CCO1 (stereo not given)	50 to 1000 nM	50 to 1000 nM	50 to 1000 nM
COc1cc2c(Nc3ccc(Cl)c(Cl)c3)ncnc2cc1OCC1CN(C2CCN(C)CC2)CCO1 (stereo not given)	< 50 nM	< 50 nM	50 to 1000 nM
COc1cc2c(Nc3ccc(Cl)c(Cl)c3)ncnc2cc1OCC1CN(CC2CCCCC2)CCCO1 (stereo not given)	50 to 1000 nM	< 50 nM	50 to 1000 nM

Structure (SMILES)	IC50 (Ephrin type-B receptor 4)	IC50 [1]	IC50 (Ephrin type-A receptor 2)
COc1cc2c(Nc3ccc(Cl)c(Cl)c3)ncnc2cc1OCC1CN(C2CCC2)CCO1 (stereo not given)	50 to 1000 nM	< 50 nM	50 to 1000 nM
COc1cc2c(Nc3ccc(Cl)c(Cl)c3)ncnc2cc1OCC1CN(C2CCOCC2)CCO1 (stereo not given)	< 50 nM	50 to 1000 nM	50 to 1000 nM
CCCCc1ccc(C(=O)N2CCOC(COc3cc4ncnc(Nc5ccc(Cl)c(Cl)c5)c4cc3OC)C2)cc1 (stereo not given)	1000 to 20000 nM	1000 to 20000 nM	1000 to 20000 nM
COc1cc2c(Nc3ccc(Cl)c(Cl)c3)ncnc2cc1OCC1CN(Cc2ccc(F)cc2)CCO1 (stereo not given)	50 to 1000 nM	50 to 1000 nM	50 to 1000 nM
COc1cc2c(Nc3ccc(Cl)c(Cl)c3)ncnc2cc1OCC1CN(CCC2CCCCC2)CCCO1 (stereo not given)	50 to 1000 nM	50 to 1000 nM	50 to 1000 nM
COCCOc1cc2c(Nc3ccc(Cl)c(Cl)c3)ncnc2cc1OCC1CN(C)CCO1 (stereo not given)	< 50 nM	50 to 1000 nM	50 to 1000 nM
CCN1CCN(C(C)=O)CC1COc1cc2ncnc(Nc3ccc(Cl)c(Cl)c3)c2cc1OC (stereo not given)	< 50 nM	1000 to 20000 nM	50 to 1000 nM
COc1cc2c(Nc3ccc(Cl)c(Cl)c3)ncnc2cc1OCC1CN(C(=O)CCC(C)C)CCO1 (stereo not given)	50 to 1000 nM	50 to 1000 nM	50 to 1000 nM
COc1cc2c(Nc3ccc(Cl)c(Cl)c3)ncnc2cc1OCC1OCCN(CC(=O)c2ccccc2)C1=O (stereo not given)	50 to 1000 nM	50 to 1000 nM	50 to 1000 nM
CCCN1CCOC(COc2cc3ncnc(Nc4ccc(Cl)c(Cl)c4)c3cc2OC)C1 (stereo not given)	< 50 nM	50 to 1000 nM	50 to 1000 nM
CN1CCOC(COc2cc3ncnc(Nc4ccc(Cl)c(Cl)c4)c3cc2O)C1 (stereo not given)	50 to 1000 nM	50 to 1000 nM	50 to 1000 nM
COc1cc2c(Nc3ccc(Cl)c(Cl)c3)ncnc2cc1OCc1cc(F)cc2c1OCOC2	1000 to 20000 nM	1000 to 20000 nM	1000 to 20000 nM
CC#CCN1CCOC(COc2cc3ncnc(Nc4ccc(Cl)c(Cl)c4)c3cc2OC)C1 (stereo not given)	50 to 1000 nM	50 to 1000 nM	50 to 1000 nM
COc1cc2c(Nc3ccc(Cl)c(Cl)c3)ncnc2cc1OCC1CN(CCF)CCO1 (stereo not given)	50 to 1000 nM	50 to 1000 nM	50 to 1000 nM
C=CCCCN1CCOC(COc2cc3ncnc(Nc4ccc(Cl)c(Cl)c4)c3cc2OC)C1 (stereo not given)	< 50 nM	< 50 nM	50 to 1000 nM
CCCCCCCN1CCOC(COc2cc3ncnc(Nc4ccc(Cl)c(Cl)c4)c3cc2OC)C1 (stereo not given)	50 to 1000 nM	50 to 1000 nM	1000 to 20000 nM
CCCCCN1CCOC(COc2cc3ncnc(Nc4ccc(Cl)c(Cl)c4)c3cc2OC)C1 (stereo not given)	50 to 1000 nM	50 to 1000 nM	50 to 1000 nM
COCCOc1cc2c(Nc3ccc(Cl)c(Cl)c3)ncnc2cc1OCC1CNCCO1 (stereo not given)	< 50 nM	< 50 nM	–
COc1cc2c(Nc3ccc(Cl)c(Cl)c3)ncnc2cc1OCc1csc(CN2CCN(C)CC2)n1	< 50 nM	–	–
COc1cc2c(Nc3ccc(Cl)c(Cl)c3)ncnc2cc1OCC1CCCCO1 (stereo not given)	< 50 nM	–	–
COc1cc2c(Nc3ccc(Cl)c(Cl)c3)ncnc2cc1OC[C@@H]1O[C@@H](OC)[C@@H](O)[C@H](O)[C@H]1O (single isomer, unassigned)	< 50 nM	–	50 to 1000 nM
COc1cc2c(Nc3ccc(N4CCN(C)CC4)c(F)c3)ncnc2cc1O[C@H]1CO[C@H]2[C@@H]1OC[C@@H]2F	1000 to 20000 nM	1000 to 20000 nM	–
COc1ccc(-c2nc(COc3cc4ncnc(Nc5ccc(Cl)c(Cl)c5)c4cc3OC)no2)cc1	–	–	1000 to 20000 nM
COc1cc2c(Nc3ccc(Cl)c(Cl)c3)ncnc2cc1OCc1csc(CN2CCOCC2)n1	50 to 1000 nM	–	–
